# US12173309B2, “Compounds for increasing genome editing efficiency” (Max-Planck-Gesellschaft zur Förderung der Wissenschaften …, priority 2017, dated 2024)
# Tested on: primary Human Epidermal Keratinocytes (HEKa)
# Assay: PGE of HPRT with Cpf1 electroporation in non-pluripotent cells
# Type: cell-based
# Protocol: Stem cell lines cultured for this project included human 409-B2 hiPSC ([…], Riken BioResource Center) and SC102A1 hiPSC ([…], BioCat GmbH), chimpanzee SandraA ciPSC (female, Mora-Bermúdez et al. 201637), as well as H9 hESC ([…], WiCell Research Institute, Ethics permit AZ 3.04.02/0118). Stem cell lines were grown on Matrigel Matrix (Corning, 35248), and mTeSR1 (StemCell Technologies, 05851) with mTeSR1 supplement (StemCell Technologies, 05852) was used as culture media. Non-pluripotent cell types and their respective media used were: HEK293 (ECACC, 85120602) with DMEM/F-12 (Gibco, 31330-038) supplemented with 10% FBS (SIGMA, F2442) and 1% NEAA (SIGMA, M7145); K562 (ECACC, 89121407) with IMDM (ThermoFisher, 12440053) supplemented with 10% FBS; CD4^+ T (HemaCare, PB04C-1) with RPMI 1640 (ThermoFisher, 11875-093) supplemented with 10% FBS, and activated with Dynabeads Human T-Activator (CD3/CD28) (ThermoFisher, 11131D); CD34^+ progenitor (HemaCare, M34C-1) with StemSpan SFEM (Stemcell, 09600) supplemented with StemSpan CC110 (StemCell, 02697); and HEKa (Gibco, C0055C) with Medium 154 (ThermoFisher, M154500) and Human Keratinocyte Growth Supplement (ThermoFisher, S0015). Cells were grown at 37° C. in a humidified incubator gassed with 5% CO2. Media was replaced every day for stem cells and every second day for non-pluripotent cell lines. Cell cultures were maintained 4-6 days until ˜80% confluency, and subcultured at a 1:6 to 1:10 dilution. Adherent cells were dissociated using EDTA (VWR, 437012C). The media was supplemented with 10 μM Rho-associated protein kinase (ROCK) inhibitor Y-27632 (Calbiochem, 688000) after cell splitting for one day in order to increase cell survival.
# The recombinant A.s. Cpf1 and S.p. Cas9 protein and electroporation enhancer was ordered from IDT (Coralville, USA) and nucleofection was done using the manufacturer's protocol, except for the following alterations. […] Cells were counted using the Countess Automated Cell Counter (Invitrogen). […]
row,Compound,effect on PGE efficiency
1,"NS(=O)(=O)OC[C@@H]1C[C@@H](n2ccc3c(N[C@H]4CCc5ccccc54)ncnc32)C[C@@H]1O [MLN4924, Pevonedistat]",disruptive effect
2,"CC(C)C1=CC23CCC4C(C)(C(=O)O)CCCC4(C)C2CC1C(C(=O)O)C3C(=O)O (stereo not drawn) [NSC 15520, Fumaropimaric acid]",disruptive effect
3,O=c1cc(N2CCOCC2)oc2c1ccc1ccccc12 [NU7026],disruptive effect
